Laboratory results: patent publication US9533991B2, “Inhibitors of Bruton's tyrosine kinase” (PHARMACYCLICS LLC, priority 2014, dated 2017)

Tests used:
[1] = target: T1, Btk (Homo sapiens, UniProt Q06187); experiment: Inhibition of a panel of kinases: Btk; format: biochemical; conditions: kinase panel, Table 2
Description: (§1) The degree of inhibition of a panel of kinases is determined using assays similar to the kinase assay described in Example 53.

[2] = target: EGFR (Homo sapiens, UniProt P00533); experiment: Inhibition of a panel of kinases: EGFR; format: biochemical; conditions: kinase panel, Table 2
Description: as §1

[3] = target: LCK (Homo sapiens, UniProt P06239); experiment: Inhibition of a panel of kinases: LCK; format: biochemical; conditions: kinase panel, Table 2
Description: as §1

[4] = system: lymphoma cell line DOHH2; experiment: Lymphoma cell assay (anti-IgG stimulated CD69, FACS); format: cell-based; conditions: DOHH-2; DOHH2 cells stimulated with anti-human IgG F(ab')2 10 μg/mL, 14 to 20 hours; read-out: IC50 (50% decrease in CD69 fluorescence on cell surface)
Description: Cells of lymphoma cell line DOHH2 were seeded in 96-well plates in standard growth media (RPMI+10% fetal calf serum). Compounds were added in an 8-point dilution series ranging from 10 to 0.004 μM with DMSO at 0.1% final concentration in all wells. Cells were then stimulated with a F(ab′)2 fragment of anti-human IgG at 10 μg/mL for 14 to 20 hours before staining for FACS analysis. Cells were incubated with fluorescent-labeled anti-CD69 antibody for 30 minutes on ice in FACS buffer and analyzed on the FACSCanto flowcytometry. The IC50, the concentration that results in a 50% decrease in intensity of fluorescence detected on the cell surface, was calculated using the Prizm software to fit the dose-response curve.

[5] = target: T1, Btk; experiment: Btk in vitro inhibitory activity (Method A, B or C); format: biochemical; set-up: purified from insect cells as a full-length construct containing a N-terminal 6×-His tag; His6 (N); made in house; host or cells: insect cells (baculovirus, Sf21); conditions: one of the methods of Example 53a, 53b, 53c
Description: Btk kinase activity is determined using a time-resolved fluorescence resonance energy transfer (TR-FRET) methodology. Measurements are performed in a reaction volume of 50 μL using 96-well assay plates. Kinase enzyme, inhibitor, ATP (at the Km for the kinase), and 1 μM peptide substrate (Biotin-AVLESEEELYSSARQ-NH2 (SEQ ID NO: 1)) are incubated in a reaction buffer composed of 20 mM Tris, 50 mM NaCl, MgCl2 (5-25 mM depending on the kinase), MnCl2 (0-10 mM), 1 mM DTT, 0.1 mM EDTA, 0.01% bovine serum albumin, 0.005% Tween-20, and 10% DMSO at pH 7.4 for one hour. The reaction is quenched by the addition of 1.2 equivalents of EDTA (relative to divalent cation) in 25 μL of 1× Lance buffer (Perkin-Elmer). Streptavidin-APC (Perkin-Elmer) and Eu-labeled p-Tyr100 antibody (Perkin-Elmer) in 1× Lance buffer are added in a 25 μL volume to give final concentrations of 100 nM and 2.5 nM, respectively, and the mixture is allowed to incubate for one hour. The TR-FRET signal is measured on a multimode plate reader with an excitation wavelength (λEx) of 330 nm and detection wavelengths (λEm) of 615 and 665 nm. Activity is determined by the ratio of the fluorescence at 665 nm to that at 615 nm. For each compound, enzyme activity is measured at various concentrations of compound. Negative control reactions are performed in the absence of inhibitor in replicates of six, and two no-enzyme controls are used to determine baseline fluorescence levels. Inhibition constants, Ki(app), ware obtained using the program BatchKi (Kuzmic et al. (2000), Anal. Biochem. 286:45-50). IC50s are obtained according to the equation: IC50={Ki(app)/1+[ATP]/Km^ATP)}+[E]total/2;
For all kinases, [ATP]=Km^ATP, [Btk]total=0.5 nM and [Lck]total=6 nM.
Kinase activity is measured in vitro using electrophoretic mobility shift assay. The kinase reactions are assembled in a total volume of 25 μL in 384 well plates. The reactions comprise: BTK enzyme (1 nM, N-terminal His6-tagged, recombinant, full-length, human BTK purified from baculovirus Sf21 insect cell system), inhibitor, ATP (16 μM, the apparent Km for the kinase), fluorescently labeled peptide substrate (1 μM, FAM-GEEPLYWSFPAKKK-NH2 (SEQ ID NO: 2)) in a reaction buffer composed of 100 mM HEPES, pH7.5, 5 mM MgCl2 1 mM DTT, 0.1% bovine serum albumin, 0.01% Triton X-100, and 1% DMSO. The reaction is incubated for one hour and is quenched by the addition of 45 μL of termination buffer (100 mM HEPES, pH7.5, 0.01% Triton X-100, 30 mM EDTA). The terminated reactions are analyzed using 12 channel LabChip® 3000 microfluidic detection instrument (Caliper Life Sciences). The enzymatic phosphorylation of the peptide results in a change in net charge, enabling electrophoretic separation of product from substrate peptide. As substrate and product peptides are separated, two peaks of fluorescence are observed. Change in the relative fluorescence intensity of the substrate and product peaks is the parameter measured, reflecting enzyme activity. In the presence of an inhibitor, the ratio between product and substrate is altered: the signal of the product decreases, while the signal of the substrate increases.
Activity in each sample is determined as the product to sum ratio (PSR):P/(S+P), where P is the peak height of the product peptide and S is the peak height of the substrate peptide. For each compound, enzyme activity is measured at various concentrations (12 concentrations of compound spaced by 3× dilution intervals). Negative control samples (0%−inhibition in the absence of inhibitor) and positive control samples (100%−inhibition, in the presence of 20 mM EDTA) are assembled in replicates of four and are used to calculate %−inhibition values for each inhibitor at each concentration. Percent inhibition (Pinh) is determined using following equation: […]

T1 sequence (Q06187 whole entry): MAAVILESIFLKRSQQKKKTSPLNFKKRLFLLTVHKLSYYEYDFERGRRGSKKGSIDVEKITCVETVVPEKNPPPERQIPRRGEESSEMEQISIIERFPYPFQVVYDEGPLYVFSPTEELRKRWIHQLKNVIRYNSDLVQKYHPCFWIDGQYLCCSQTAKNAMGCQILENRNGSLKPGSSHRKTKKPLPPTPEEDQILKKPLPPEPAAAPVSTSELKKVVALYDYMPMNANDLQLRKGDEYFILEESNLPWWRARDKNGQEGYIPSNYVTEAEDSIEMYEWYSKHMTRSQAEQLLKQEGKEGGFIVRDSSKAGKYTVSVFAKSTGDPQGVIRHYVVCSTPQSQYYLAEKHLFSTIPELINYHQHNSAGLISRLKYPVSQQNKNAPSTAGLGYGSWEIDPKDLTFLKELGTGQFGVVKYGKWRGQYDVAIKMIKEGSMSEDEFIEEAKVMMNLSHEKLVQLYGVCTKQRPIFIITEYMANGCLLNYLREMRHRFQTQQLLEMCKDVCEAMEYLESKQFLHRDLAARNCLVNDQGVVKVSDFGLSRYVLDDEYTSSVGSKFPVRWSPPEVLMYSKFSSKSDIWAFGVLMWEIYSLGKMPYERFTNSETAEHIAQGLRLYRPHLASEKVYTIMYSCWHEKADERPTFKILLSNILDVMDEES
LCK, sequence (P06239 whole entry, species assumed): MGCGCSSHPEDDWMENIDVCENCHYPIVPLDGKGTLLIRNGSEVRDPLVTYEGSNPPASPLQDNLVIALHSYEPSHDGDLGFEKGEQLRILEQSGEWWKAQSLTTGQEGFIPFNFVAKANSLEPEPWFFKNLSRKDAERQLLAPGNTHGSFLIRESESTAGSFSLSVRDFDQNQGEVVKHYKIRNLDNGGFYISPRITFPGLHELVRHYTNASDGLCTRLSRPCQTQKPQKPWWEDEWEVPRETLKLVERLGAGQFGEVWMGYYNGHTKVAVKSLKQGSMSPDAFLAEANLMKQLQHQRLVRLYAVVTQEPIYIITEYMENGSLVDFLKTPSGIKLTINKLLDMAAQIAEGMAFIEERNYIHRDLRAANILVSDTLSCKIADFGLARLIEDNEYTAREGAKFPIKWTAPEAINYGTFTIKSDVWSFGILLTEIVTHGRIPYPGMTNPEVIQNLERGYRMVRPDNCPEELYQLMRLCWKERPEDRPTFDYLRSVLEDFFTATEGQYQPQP
EGFR, sequence (P00533 25-1210, species assumed): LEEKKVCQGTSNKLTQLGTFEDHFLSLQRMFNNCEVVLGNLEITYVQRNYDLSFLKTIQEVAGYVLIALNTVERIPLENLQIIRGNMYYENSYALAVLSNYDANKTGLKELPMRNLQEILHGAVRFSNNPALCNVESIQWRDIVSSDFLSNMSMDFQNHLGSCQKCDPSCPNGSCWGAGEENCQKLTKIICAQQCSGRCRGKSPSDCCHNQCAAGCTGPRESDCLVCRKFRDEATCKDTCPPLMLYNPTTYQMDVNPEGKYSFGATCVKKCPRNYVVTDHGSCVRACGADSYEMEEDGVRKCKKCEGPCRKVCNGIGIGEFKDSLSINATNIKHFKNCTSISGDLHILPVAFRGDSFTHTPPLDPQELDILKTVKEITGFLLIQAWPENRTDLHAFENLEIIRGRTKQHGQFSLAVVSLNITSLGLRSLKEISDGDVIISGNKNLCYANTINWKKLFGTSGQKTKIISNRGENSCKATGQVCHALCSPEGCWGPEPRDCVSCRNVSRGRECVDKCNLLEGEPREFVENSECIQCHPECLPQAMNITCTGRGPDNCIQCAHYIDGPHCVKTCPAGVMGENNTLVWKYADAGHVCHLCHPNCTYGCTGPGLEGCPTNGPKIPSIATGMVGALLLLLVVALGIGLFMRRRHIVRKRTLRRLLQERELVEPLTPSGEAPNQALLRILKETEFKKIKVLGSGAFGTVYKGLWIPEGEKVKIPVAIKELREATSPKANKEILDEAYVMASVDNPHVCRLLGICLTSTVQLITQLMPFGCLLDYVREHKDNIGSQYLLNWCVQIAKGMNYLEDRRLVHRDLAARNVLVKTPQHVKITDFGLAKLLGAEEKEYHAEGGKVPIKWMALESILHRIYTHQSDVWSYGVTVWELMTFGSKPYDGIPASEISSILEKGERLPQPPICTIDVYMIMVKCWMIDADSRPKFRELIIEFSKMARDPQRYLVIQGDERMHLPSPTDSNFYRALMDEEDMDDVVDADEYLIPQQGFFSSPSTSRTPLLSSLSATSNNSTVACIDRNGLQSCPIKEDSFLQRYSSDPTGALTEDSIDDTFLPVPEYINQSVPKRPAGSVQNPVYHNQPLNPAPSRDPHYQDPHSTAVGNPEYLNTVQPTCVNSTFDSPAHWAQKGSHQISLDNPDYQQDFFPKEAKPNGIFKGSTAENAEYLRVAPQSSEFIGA

| SMILES | IC50 [1] [nM] | IC50 [2] [nM] | IC50 [3] [nM] | IC50 [4] [nM] | IC50 [5] [nM] |
| --- | --- | --- | --- | --- | --- |
| C=CC(=O)N1CCC[C@@H](n2nc(-c3ccc(C(=O)Nc4cc(C(F)(F)F)ccn4)cc3)c3c(N)ncnc32)C1 [Compound ID 27, (R)-4-(1-(1-acryloylpiperidin-3-yl)-4-amino-1H-pyrazolo[3,4-d]pyrimidin-3-yl)-N-(4-(trifluoromethyl)pyridin-2-yl)benzamide] |  |  |  | < 5 | ≤ 10 |
| C=CC(=O)N1CC[C@@H](n2nc(-c3ccc(C(=O)Nc4cc(CCC)ccn4)cc3)c3c(N)ncnc32)C1 [Compound ID 30, (R)-4-(1-(1-acryloylpyrrolidin-3-yl)-4-amino-1H-pyrazolo[3,4-d]pyrimidin-3-yl)-N-(4-propylpyridin-2-yl)benzamide] |  |  |  | < 5 | ≤ 10 |
| C=CC(=O)N1CCC[C@@H](n2nc(-c3ccc(C(=O)Nc4cc(CCC)ccn4)cc3)c3c(N)ncnc32)C1 [Compound ID 31, (R)-4-(1-(1-acryloylpiperidin-3-yl)-4-amino-1H-pyrazolo[3,4-d]pyrimidin-3-yl)-N-(4-propylpyridin-2-yl)benzamide] |  |  |  | < 5 | ≤ 10 |

Further lines, results first:

| IC50 [1] [nM] | IC50 [2] [nM] | IC50 [3] [nM] | IC50 [4] [nM] | IC50 [5] [nM] | SMILES |
| --- | --- | --- | --- | --- | --- |
| ≤ 10 | ≤ 10 | 10 to 100 | < 5 | ≤ 10 | C=CC(=O)N1CC[C@@H](n2nc(-c3ccc(C(=O)Nc4cc(C)ccn4)cc3)c3c(N)ncnc32)C1 [Compound ID 20, (R)-4-(1-(1-acryloylpyrrolidin-3-yl)-4-amino-1H-pyrazolo[3,4-d]pyrimidin-3-yl)-N-(4-methylpyridin-2-yl)benzamide] |
| ≤ 10 | ≤ 10 | 10 to 100 | < 5 | ≤ 10 | C=CC(=O)N1CC[C@@H](n2nc(-c3ccc(C(=O)Nc4cc(C(F)(F)F)ccn4)cc3)c3c(N)ncnc32)C1 [Compound ID 21, (R)-4-(1-(1-acryloylpyrrolidin-3-yl)-4-amino-1H-pyrazolo[3,4-d]pyrimidin-3-yl)-N-(4-(trifluoromethyl)pyridin-2-yl)benzamide] |
|  |  |  | < 5 | ≤ 10 | C=CC(=O)N1CC[C@@H](n2nc(-c3ccc(C(=O)Nc4cc(C(C)C)ccn4)cc3)c3c(N)ncnc32)C1 [Compound ID 23, (R)-4-(1-(1-acryloylpyrrolidin-3-yl)-4-amino-1H-pyrazolo[3,4-d]pyrimidin-3-yl)-N-(4-isopropylpyridin-2-yl)benzamide] |
|  |  |  | < 5 | ≤ 10 | C=CC(=O)N1CCC[C@@H](n2nc(-c3ccc(C(=O)Nc4cc(C)ccn4)cc3)c3c(N)ncnc32)C1 [Compound ID 26, (R)-4-(1-(1-acryloylpiperidin-3-yl)-4-amino-1H-pyrazolo[3,4-d]pyrimidin-3-yl)-N-(4-methylpyridin-2-yl)benzamide] |
